According to patent publication US20260258064A1 (SIRONAX LTD., priority 2023, published 2026):

Molecular target: T1, SARM1 (50-724) (Homo sapiens, UniProt Q6SZW1)
T1 construct: Purified SARM1 (50-724) with a final concentration of 2 nM was pre-incubated with a test compound
T1 sequence (Q6SZW1 50-724): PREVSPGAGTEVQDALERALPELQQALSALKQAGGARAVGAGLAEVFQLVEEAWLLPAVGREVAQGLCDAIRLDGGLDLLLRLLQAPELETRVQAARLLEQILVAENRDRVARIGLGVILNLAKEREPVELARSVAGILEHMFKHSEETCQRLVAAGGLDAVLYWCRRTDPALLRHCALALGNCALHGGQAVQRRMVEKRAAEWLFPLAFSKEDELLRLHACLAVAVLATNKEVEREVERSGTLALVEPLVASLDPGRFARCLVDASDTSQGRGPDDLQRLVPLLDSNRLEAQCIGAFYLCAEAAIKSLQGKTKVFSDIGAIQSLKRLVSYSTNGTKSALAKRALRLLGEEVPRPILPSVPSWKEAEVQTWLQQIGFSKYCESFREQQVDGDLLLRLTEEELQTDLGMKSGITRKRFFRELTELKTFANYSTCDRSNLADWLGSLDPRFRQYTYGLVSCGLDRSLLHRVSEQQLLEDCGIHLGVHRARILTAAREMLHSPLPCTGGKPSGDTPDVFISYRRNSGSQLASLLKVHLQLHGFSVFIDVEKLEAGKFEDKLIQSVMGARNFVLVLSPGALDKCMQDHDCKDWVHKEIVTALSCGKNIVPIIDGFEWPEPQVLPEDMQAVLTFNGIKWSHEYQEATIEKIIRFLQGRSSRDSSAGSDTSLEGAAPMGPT
Assay: SARM1 (50-724) enzymatic assay (LC-MS/MS)
Format: biochemical
Details: Purified SARM1 (50-724) 2 nM, NMN as activator, NAD+ as substrate, 1 h at room temperature, read-out: IC50 (SARM1 inhibitory activity)
How it was run: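 Human SARM1 (50-724), 2 nM, pre-incubated 15 min at room temperature with compound in Dulbecco's PBS. Reaction started with 200 µM NMN (activator) plus […] NAD^+ substrate, run 1 h at room temperature, quenched with 70% acetonitrile. Turnover quantified by LC-MS/MS; IC50 reported.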

IC50: ≤ 100 nM
Structure (SMILES): O=C(O)c1cc(-n2cnnc2-c2nc3cc(C(F)(F)F)ccc3[nH]2)c(OC(F)(F)F)cn1 [Compound 266, 5-(trifluoromethoxy)-4-(3-(5-(trifluoromethyl)-1H-benzo[d]imidazol-2-yl)-4H-1,2,4-triazol-4-yl)picolinic acid]
